Measurements as given in publication PMC10202811 (Nature Medicine, 2023).
Values joined by “and” are separate entries in the source; they are usually repeats but may differ in a detail not shown here. Equal values may be shown once.

Test: Plasma pharmacokinetics of lorlatinib at steady state (LC-MS/MS, non-compartmental analysis)
Type: in vivo, human
Parameters: Vz_F / Cmax_D / AUMClast / AUMC_TAU: unit not given here
Details: for Tlag: unit assumed
Excerpt: Lorlatinib was isolated from human plasma by a liquid-iquid extraction procedure. […] A linear-log trapezoidal method was used [NT] A best-fit method was used to estimate terminal elimination and to extrapolate any plasma concentration versus time profiles to compute [NT].

[1] = Cohort A1, 45 mg/m2 per dose, C1D15, Max, N 3
[2] = Cohort A1, 45 mg/m2 per dose, C1D15, Min, N 3
[3] = Cohort A1, 45 mg/m2 per dose, C1D15, individual patient
[4] = Cohort A1, 60 mg/m2 per dose, C1D15, Max, N 3
[5] = Cohort A1, 60 mg/m2 per dose, C1D15, Min, N 3
[6] = Cohort A1, 60 mg/m2 per dose, C1D15, individual patient
[7] = Cohort A1, 75 mg/m2 per dose, C1D15, Max, N 3
[8] = Cohort A1, 75 mg/m2 per dose, C1D15, Min, N 3
[9] = Cohort A1, 75 mg/m2 per dose, C1D15, individual patient
[10] = Cohort A1, 95 mg/m2 per dose, C1D15, Max, N 9
[11] = Cohort A1, 95 mg/m2 per dose, C1D15, Min, N 9
[12] = Cohort A1, 95 mg/m2 per dose, C1D15, individual patient
[13] = Cohort A1, 115 mg/m2 per dose, C1D15, Max, N 6
[14] = Cohort A1, 115 mg/m2 per dose, C1D15, Min, N 6
[15] = Cohort A1, 115 mg/m2 per dose, C1D15, individual patient
[16] = Cohort A2, 100 mg per dose, C1D15, Max, N 5
[17] = Cohort A2, 100 mg per dose, C1D15, Min, N 5
[18] = Cohort A2, 100 mg per dose, C1D15, individual patient
[19] = Cohort A2, 150 mg per dose, C1D15, Min, N 10
[20] = Cohort A2, 150 mg per dose, C1D15, individual patient
[21] = Cohort B2, 95 mg/m2 per dose, C1D15, Min, N 2
[22] = Cohort B2, 95 mg/m2 per dose, C1D15, individual patient
[23] = Cohort B2, 115 mg/m2 per dose, C1D15, Max, N 6
[24] = Cohort B2, 115 mg/m2 per dose, C1D15, Min, N 6
[25] = Cohort B2, 115 mg/m2 per dose, C1D15, individual patient
[26] = Cycle 1 Day 1, Cohort A1, 95 mg/m2 per dose
[27] = Cycle 1 Day 1, Cohort A1, 115 mg/m2 per dose
[28] = Cycle 1 Day 1, Cohort A2, 150 mg per dose
[29] = Cycle 1 Day 1, Cohort A2, 150 mg per dose, in h (unit assumed)
[30] = Cycle 1 Day 1, Cohort A2, 150 mg per dose, in ng·h/mL (unit assumed)

## C[C@H]1Oc2cc(cnc2N)-c2c(nn(C)c2C#N)CN(C)C(=O)c2ccc(F)cc21 [Lorlatinib, (10R)-7-amino-12-fluoro-2,10,16-trimethyl-15-oxo-10,15,16,17-tetrahydro-2H-8,4-(metheno)pyrazolo[4,3-h][2,5,11]-benzoxadiazacyclotetradecine-3-carbonitrile]
17 patients who received the oral dispersion formulation
  AUCtau or Cmax at steady state with oral dispersion formulation: no differences
Cohort A1, 45 mg/m2 per dose, C1D15, Geometric Mean, N 3
  CLss_F: 15.376 L/h
[1]
  AUC_TAU: 3727.9 ng·h/mL
  CLss_F: 19.85 L/h
  Cmax: 639 ng/mL
  Tmax: 2 h
[2]
  AUC_TAU: 1259.74 ng·h/mL
  Cmax: 243 ng/mL
  Tmax: 1 h
[3]
  AUC_TAU: 1259.74 ng·h/mL and 3727.9 ng·h/mL
  CLss_F: 19.85 L/h and 12.41 L/h and 14.75 L/h
  Cmax: 639 ng/mL and 243 ng/mL
  Tmax: 2 h
Cohort A1, 60 mg/m2 per dose, C1D15, Geometric Mean, N 3
  CLss_F: 13.223 L/h
[4]
  AUC_TAU: 4173.07 ng·h/mL
  CLss_F: 16.77 L/h
  Cmax: 623 ng/mL
  Tmax: 2 h
Cohort A1, 60 mg/m2 per dose, C1D15, Median, N 3
  CLss_F: 12.07 L/h
[5]
  AUC_TAU: 3503.02 ng·h/mL
  CLss_F: 11.42 L/h
  Cmax: 343 ng/mL
  Tmax: 1 h
[6]
  AUC_TAU: 3503.02 ng·h/mL and 4173.07 ng·h/mL
  CLss_F: 12.07 L/h and 11.42 L/h and 16.77 L/h
  Cmax: 343 ng/mL
  Tmax: 2 h
Cohort A1, 75 mg/m2 per dose, C1D15, Geometric Mean, N 3
  CLss_F: 15.412 L/h
[7]
  AUC_TAU: 6555.75 ng·h/mL
  CLss_F: 18.36 L/h
  Cmax: 670 ng/mL
  Tmax: 6 h
Cohort A1, 75 mg/m2 per dose, C1D15, Median, N 3
  CLss_F: 17.43 L/h
[8]
  AUC_TAU: 2723.69 ng·h/mL
  CLss_F: 11.44 L/h
  Cmax: 609 ng/mL
  Tmax: 1 h
[9]
  AUC_TAU: 6555.75 ng·h/mL and 2723.69 ng·h/mL
  CLss_F: 11.44 L/h and 17.43 L/h and 18.36 L/h
  Cmax: 609 ng/mL and 670 ng/mL
  Tmax: 6 h and 2 h
Cohort A1, 95 mg/m2 per dose, C1D15, Geometric Mean, N 9
  CLss_F: 9.802 L/h
[10]
  AUC_TAU: 14697.9 ng·h/mL
  CLss_F: 14.62 L/h
  Cmax: 1880 ng/mL
Cohort A1, 95 mg/m2 per dose, C1D15, Median, N 9
  CLss_F: 10.12 L/h
[11]
  AUC_TAU: 3760.87 ng·h/mL
  CLss_F: 6.46 L/h
  Cmax: 590 ng/mL
  Tmax: 1 h
[12]
  AUC_TAU: 14697.9 ng·h/mL and 11566.7 ng·h/mL and 5234.23 ng·h/mL and 6616.73 ng·h/mL and 4786.75 ng·h/mL and 7725.79 ng·h/mL and 3760.87 ng·h/mL and 12827.9 ng·h/mL
  CLss_F: 6.46 L/h and 12.54 L/h and 10.51 L/h and 8.31 L/h and 12.53 L/h and 7.77 L/h and 10.12 L/h and 14.62 L/h and 8.19 L/h
  Cmax: 1420 ng/mL and 607 ng/mL and 842 ng/mL and 590 ng/mL and 1230 ng/mL and 1220 ng/mL and 938 ng/mL and 1880 ng/mL
  Tmax: 2 h
Cohort A1, 115 mg/m2 per dose, C1D15, Geometric Mean, N 6
  CLss_F: 11.462 L/h
[13]
  AUC_TAU: 14092.4 ng·h/mL
  CLss_F: 16.79 L/h
  Cmax: 2090 ng/mL
Cohort A1, 115 mg/m2 per dose, C1D15, Median, N 6
  CLss_F: 10.95 L/h
[14]
  AUC_TAU: 5878.52 ng·h/mL
  CLss_F: 7.45 L/h
  Cmax: 708 ng/mL
  Tmax: 1 h
[15]
  AUC_TAU: 8206.77 ng·h/mL and 6238.52 ng·h/mL and 11011.1 ng·h/mL and 5878.52 ng·h/mL and 8933.2 ng·h/mL and 14092.4 ng·h/mL
  CLss_F: 15.84 L/h and 9.62 L/h and 9.99 L/h and 11.91 L/h and 16.79 L/h and 7.45 L/h
  Cmax: 708 ng/mL and 1210 ng/mL and 1530 ng/mL and 859 ng/mL and 2090 ng/mL
  Tmax: 2 h
Cohort A2, 100 mg per dose, C1D15, Geometric Mean, N 5
  CLss_F: 14.731 L/h
[16]
  AUC_TAU: 16686 ng·h/mL
  CLss_F: 32.13 L/h
  Cmax: 1830 ng/mL
Cohort A2, 100 mg per dose, C1D15, Median, N 5
  CLss_F: 16.3 L/h
[17]
  AUC_TAU: 3111.99 ng·h/mL
  CLss_F: 5.99 L/h
  Cmax: 341 ng/mL
  Tmax: 1 h
[18]
  AUC_TAU: 16686 ng·h/mL and 10710.2 ng·h/mL and 3111.99 ng·h/mL and 4225.59 ng·h/mL
  CLss_F: 5.99 L/h and 9.34 L/h and 32.13 L/h and 16.3 L/h and 23.67 L/h
  Cmax: 1830 ng/mL and 1630 ng/mL and 341 ng/mL and 528 ng/mL
  Tmax: 2 h
Cohort A2, 150 mg per dose, C1D15, Max, N 10
  AUC_TAU: 8297.22 ng·h/mL
[19]
  AUC_TAU: 4999.09 ng·h/mL
  Cmax: 502 ng/mL
  Tmax: 1 h
[20]
  AUC_TAU: 7380.68 ng·h/mL and 6784.89 ng·h/mL and 4999.09 ng·h/mL and 5689.56 ng·h/mL and 7693.93 ng·h/mL and 6576.81 ng·h/mL and 7115.87 ng·h/mL and 7004.8 ng·h/mL and 8297.22 ng·h/mL
  CLss_F: 25.34 L/h and 20.32 L/h and 22.11 L/h and 30.01 L/h and 26.36 L/h and 19.5 L/h and 22.81 L/h and 21.08 L/h
  Cmax: 647 ng/mL and 750 ng/mL and 502 ng/mL and 670 ng/mL and 912 ng/mL and 943 ng/mL and 602 ng/mL and 814 ng/mL
  Tmax: 2 h
[21]
  AUC_TAU: 5523.12 ng·h/mL
  Cmax: 721 ng/mL
  Tmax: 2 h
[22]
  AUC_TAU: 5523.12 ng·h/mL
  Cmax: 721 ng/mL
  Tmax: 2 h
Cohort B2, 115 mg/m2 per dose, C1D15, Geometric Mean, N 6
  CLss_F: 13.049 L/h
[23]
  AUC_TAU: 17825.7 ng·h/mL
  CLss_F: 20.8 L/h
  Cmax: 2190 ng/mL
  Tmax: 2 h
Cohort B2, 115 mg/m2 per dose, C1D15, Median, N 6
  CLss_F: 12.47 L/h
[24]
  AUC_TAU: 5493.74 ng·h/mL
  CLss_F: 7.85 L/h
  Cmax: 766 ng/mL
  Tmax: 1 h
[25]
  AUC_TAU: 17825.7 ng·h/mL and 6932.9 ng·h/mL and 8905.09 ng·h/mL and 5493.74 ng·h/mL and 6008.87 ng·h/mL and 6951.39 ng·h/mL
  Cmax: 2190 ng/mL and 1680 ng/mL and 1330 ng/mL and 766 ng/mL
  Tmax: 2 h
[26]
  Tlast: 24 h
  Tlag: 0 h
Cycle 1 Day 1, Cohort A1, 95 mg/m2 per dose, listed as lorlatinib, in h (unit assumed)
  Tmax: 2
[27]
  Tlast: 24 h
  Tlag: 0 h
Cycle 1 Day 1, Cohort A1, 115 mg/m2 per dose, in h (unit assumed)
  Tmax: 1
Cycle 1 Day 1, Cohort A1, 115 mg/m2 per dose, listed as lorlatinib, in h (unit assumed)
  Tmax: 2
[28]
  AUMClast: 83897.37077 and 79949.21779 and 69497.95951 and 102751.9946 and 91445.2354 and 87523.98089 and 72181.31228
  Tlast: 24 h
[29]
  MRTlast: 8.731 and 10.12 and 8.547 and 10.11 and 9.639 and 8.636
  Tmax: 2
Cycle 1 Day 1, Cohort A2, 150 mg per dose, in ng/mL
  Clast: 158 and 127 and 138 and 146 and 206
[30]
  AUCall: 9157 and 6869 and 12022.44647 and 9046 and 9080
  AUClast: 9157 and 6869 and 12022.44647 and 9046 and 9080 and 8359
